Measured values taken from US9643964B2, “3-(2-aminopyrimidin-4-yl)-5-(3-hydroxypropynyl)-1H-pyrrolo[2,3-C]pyridine derivatives as NIK inhibitors for the treatment of cancer” (Janssen Pharmaceutica NV, priority 2013, dated 2017).

Key:
[1] = target: Recombinant Human NF-kappaB-Inducing Kinase (NIK/MAP3K14) (Homo sapiens, UniProt Q99558); assay: Biological Assay A2: inhibition of auto-phosphorylation of recombinant human NIK/MAP3K14 (AlphaScreen); type: biochemical; conditions: auto-phosphorylation; averaged over all measurements on all batches; read-out: αscreen IC50
Sequence of Recombinant Human NF-kappaB-Inducing Kinase (NIK/MAP3K14) (Q99558 whole entry): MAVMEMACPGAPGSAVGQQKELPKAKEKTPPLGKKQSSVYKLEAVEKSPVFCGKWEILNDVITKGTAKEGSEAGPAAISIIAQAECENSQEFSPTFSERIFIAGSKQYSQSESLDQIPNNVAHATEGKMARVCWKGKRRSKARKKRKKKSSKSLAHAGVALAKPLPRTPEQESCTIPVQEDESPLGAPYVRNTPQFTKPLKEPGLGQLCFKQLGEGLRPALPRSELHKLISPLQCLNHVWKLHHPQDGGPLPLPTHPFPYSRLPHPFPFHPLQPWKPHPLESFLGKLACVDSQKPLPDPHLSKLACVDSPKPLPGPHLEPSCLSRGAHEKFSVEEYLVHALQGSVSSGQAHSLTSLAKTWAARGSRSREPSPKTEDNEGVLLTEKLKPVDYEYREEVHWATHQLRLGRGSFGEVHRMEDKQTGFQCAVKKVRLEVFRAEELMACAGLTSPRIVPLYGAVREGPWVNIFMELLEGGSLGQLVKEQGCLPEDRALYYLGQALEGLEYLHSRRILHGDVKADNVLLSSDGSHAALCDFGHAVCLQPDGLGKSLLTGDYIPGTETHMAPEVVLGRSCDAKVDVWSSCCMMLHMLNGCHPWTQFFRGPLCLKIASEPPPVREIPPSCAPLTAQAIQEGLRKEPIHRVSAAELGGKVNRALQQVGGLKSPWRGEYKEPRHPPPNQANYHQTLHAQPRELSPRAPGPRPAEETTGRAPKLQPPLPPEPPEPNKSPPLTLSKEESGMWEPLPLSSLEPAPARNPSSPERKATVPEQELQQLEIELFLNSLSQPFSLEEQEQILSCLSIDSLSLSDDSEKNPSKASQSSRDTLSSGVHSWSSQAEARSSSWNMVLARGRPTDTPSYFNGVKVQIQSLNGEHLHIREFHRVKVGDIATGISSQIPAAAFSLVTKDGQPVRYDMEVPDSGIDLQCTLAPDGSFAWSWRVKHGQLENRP
Procedure: Inhibition of Auto-Phosphorylation of Recombinant Human NF-kappaB-Inducing Kinase (NIK/MAP3K14) Activity (AlphaScreen®)
NIK/MAP3K14 auto-phosphorylation activity was measured using the AlphaScreen® (αscreen) format (Perkin Elmer). All compounds tested were dissolved in dimethyl sulfoxide (DMSO) and further dilutions were made in assay buffer. Final DMSO concentration was 1% (v/v) in assays. Assay buffer was 50 mM Tris pH 7.5 containing 1 mM EGTA (ethylene glycol tetraacetic acid), 1 mM DTT (dithiothreitol), 0.1 mM Na3VO4, 5 mM MgCl2, 0.01% Tween 20. Assays were carried out in 384 well Alphaplates (Perkin Elmer). Incubations consisted of compound, 25 microM Adenosine-5′-triphosphate (ATP), and 0.2 nM NIK/MAP3K14. Incubations were initiated by addition of GST-tagged NIK/MAP3K14 enzyme, carried out for 1 h at 25° C. and terminated by addition of stop buffer containing anti-phospho-IKK Ser176/180 antibody. Protein A Acceptor and Glutathione-Donor beads were added before reading using an EnVision® Multilabel Plate Reader (Perkin Elmer). Signal obtained in the wells containing blank samples was subtracted from all other wells and IC50's were determined by fitting a sigmoidal curve to % inhibition of control versus Log10 compound concentration.

[2] = tested on: LP-1 cells; assay: Biological Assay C: antiproliferative activity on LP-1 cells (CellTiter-Glo); type: cell-based, human; conditions: 72 hr treatment, averaged values
Procedure: (§1) Determination of Antiproliferative Activity on LP-1, L-363 and JJN-3 Cells
(§2) All compounds tested were dissolved in DMSO and further dilutions were made in culture medium. Final DMSO concentration was 0.3% (v/v) in cell proliferation assays. Viability was assessed using CellTiter-Glo cell viability assay kit (Promega). The human LP-1, L-363 and JJN-3 cells (DSMZ) were cultured in RPMI 1640 medium supplemented with 2 mM L-glutamine, and 10% fetal calf serum (PAA). Cells were routinely kept as suspension cells at 37° C. in a humidified 5% CO2 atmosphere. Cells were passaged at a seeding density of 0.2×10^6/ml twice a week. Cells were seeded in black tissue culture treated 96-well plates (Perkin Elmer). Densities used for plating ranged from 2,000 to 6,000 cells per well in a total volume of 75 μl medium. After twenty four hours, drugs and/or solvents were added (25 μl) to a final volume of 100 μl. Following 72 hr of treatment plates were removed from the incubator and allowed to equilibrate to room temperature for approx 10 min. 100 μl CellTiter-Glo reagent was added to each well that was then covered (Perkin Elmer Topseal) and shaken on plate shaker for 10 min. Luminescence was measured on a HTS Topcount (Perkin Elmer). Within an experiment, the results for each treatment were the mean of 2 replicate wells. For initial screening purposes, compounds were tested using a 9 point dilution curve (serial 1:3 dilutions). For each experiment, controls (containing no drug) and a blank incubation (containing cells read at the time of compound addition) were run in parallel. The blank value was subtracted from all control and sample values. For each sample, the mean value for cell growth (in relative light units) was expressed as a percentage of the mean value for cell growth of the control.

[3] = tested on: L-363 cells; assay: Biological Assay C: antiproliferative activity on L-363 cells (CellTiter-Glo); type: cell-based, human; conditions: 72 hr treatment, averaged values
Procedure: as §1, §2

[4] = tested on: JJN-3 cells; assay: Biological Assay C: antiproliferative activity on JJN-3 cells (CellTiter-Glo); type: cell-based, human; conditions: 72 hr treatment, averaged values
Procedure: as §1, §2

Row | SMILES | IC50 [1] [nM] | EC50 ([2]; Homo sapiens, LP-1, 72 h) [nM] | EC50 ([3]; Homo sapiens, L-363, 72 h) [nM] | EC50 ([4]; Homo sapiens, JJN-3, 72 h) [nM] | EC50 [2] [nM] | EC50 [3] [nM] | EC50 [4] [nM]
1 | COC(C)(C)Cn1cc(-c2nc(N)ncc2F)c2cc(C#CC(C)(O)C3CC3)ncc21 (stereo not shown) [Compound 101] | 38 | 220 | 160 | 160 | – | – | –
2 | CC(O)(C#Cc1cc2c(-c3nc(N)ncc3F)cn(C3CN(C4CC4)C3)c2cn1)C1CC1 (stereo not shown) [Compound 104] | 53 | 470 | 180 | 260 | – | – | –
3 | CC(O)(C#Cc1cc2c(-c3nc(N)ncc3F)cn(CCCN3CCOCC3)c2cn1)C1CC1 (stereo not shown) [Compound 105] | 190 | 530 | 140 | 200 | – | – | –
4 | CCN1CCC(n2cc(-c3nc(N)ncc3F)c3cc(C#CC(C)(O)C4CC4)ncc32)CC1 (stereo not shown) [Compound 106] | 95 | 340 | 90 | 120 | – | – | –
5 | CN1CCC(n2cc(-c3nc(N)ncc3F)c3cc(C#CC(C)(O)C4CC4)ncc32)C1 (stereo not shown) [Compound 107] | 88 | 150 | 57 | 78 | – | – | –
6 | COCCN1CCC(n2cc(-c3nc(N)ncc3F)c3cc(C#CC(C)(O)C4CC4)ncc32)CC1 (stereo not shown) [Compound 108] | 140 | 640 | 280 | 270 | – | – | –
7 | Cn1cc(Cn2cc(-c3nc(N)ncc3F)c3cc(C#CC(C)(O)C4CC4)ncc32)cn1 (stereo not shown) [Compound 109] | 120 | 1200 | 360 | 460 | – | – | –
8 | [2H]C([2H])([2H])C(O)(C#Cc1cc2c(-c3nc(N)ncc3F)cn(C3COC3)c2cn1)C1([2H])C([2H])([2H])C1([2H])[2H] (stereo not shown) [Compound 110] | 17 | 580 | 140 | 170 | – | – | –
9 | COCCn1cc(-c2ccnc(N)n2)c2cc(C#CC(C)(O)C3CCNCC3)ncc21 (stereo not shown) [Compound 115] | 4900 | > 10000 | > 10000 | > 10000 | – | – | –
10 | COCCN1CCC(n2cc(-c3nc(N)ncc3F)c3cc(C#CC(C)(O)C4CC4)ncc32)CC1 (stereo not shown) [Compound 126] | 140 | – | – | – | 640 | 280 | 270
11 | CCN1CCOC(Cn2cc(-c3nc(N)ncc3F)c3cc(C#CC(C)(O)C4CC4)ncc32)C1 (stereo not shown) [Compound 127] | 180 | 420 | 190 | 240 | – | – | –
12 | COCC(C)n1cc(-c2nc(N)ncc2F)c2cc(C#CC(C)(O)C3CC3)ncc21 (stereo not shown) [Compound 128] | 76 | 310 | 120 | 130 | – | – | –
13 | CC1(Cn2cc(-c3nc(N)ncc3F)c3cc(C#CC(C)(O)C4CC4)ncc32)COC1 (stereo not shown) [Compound 129] | 23 | 920 | 150 | 210 | – | – | –
14 | CC(O)(C#Cc1cc2c(-c3nc(N)ncc3F)cn(CC3CCCO3)c2cn1)C1CC1 (stereo not shown) [Compound 130] | 28 | 640 | 190 | 300 | – | – | –
15 | CC(O)(C#Cc1cc2c(-c3nc(N)ncc3F)cn(C3CCOC3)c2cn1)C1CC1 (stereo not shown) [Compound 131] | 21 | 440 | 89 | 150 | – | – | –
16 | CC(O)(C#Cc1cc2c(-c3nc(N)ncc3F)c[nH]c2cn1)C1CC1 (stereo not shown) [Compound 132] | 6.5 | 410 | 30 | 77 | – | – | –
17 | Cc1nc(C#CC(C)(O)C2CC2)cc2c(-c3nc(N)ncc3F)cn(C3COC3)c12 (stereo not shown) [Compound 133] | 50 | 330 | 66 | 140 | – | – | –
18 | CN1CCN(C(=O)n2cc(-c3nc(N)ncc3F)c3cc(C#CC(C)(O)C4CC4)ncc32)CC1 (stereo not shown) [Compound 134] | 110 | 24000 | 3000 | 4100 | – | – | –
19 | CN1CC(n2cc(-c3nc(N)ncc3F)c3cc(C#CC(C)(O)C4CC4)ncc32)C1 (stereo not shown) [Compound 135] | 68 | 410 | 64 | 180 | – | – | –

Row | SMILES | IC50 [1] [nM] | EC50 ([2]; Homo sapiens, LP-1, 72 h) [nM] | EC50 ([3]; Homo sapiens, L-363, 72 h) [nM] | EC50 ([4]; Homo sapiens, JJN-3, 72 h) [nM] | EC50 [2] [nM] | EC50 [3] [nM] | EC50 [4] [nM]
20 | CCN1CC(n2cc(-c3nc(N)ncc3F)c3cc(C#CC(C)(O)C4CC4)ncc32)C1 (stereo not shown) [Compound 136] | 120 | 450 | 140 | 240 | – | – | –
21 | Nc1ncc(F)c(-c2cn(C3COC3)c3cnc(C#CC(O)(CF)C4CC4)cc23)n1 (stereo not shown) [Compound 137] | 53 | 1990 | 380 | 550 | – | – | –
22 | CCN1CCCC(n2cc(-c3nc(N)ncc3F)c3cc(C#CC(C)(O)C4CC4)ncc32)C1 (stereo not shown) [Compound 138] | 110 | 250 | 80 | 94 | – | – | –
23 | CCCN1CC(n2cc(-c3nc(N)ncc3F)c3cc(C#CC(C)(O)C4CC4)ncc32)C1 (stereo not shown) [Compound 139] | 98 | 340 | 160 | 220 | – | – | –
24 | CC(O)(C#Cc1cc2c(-c3nc(N)ncc3F)cn(C3CN(CC4CC4)C3)c2cn1)C1CC1 (stereo not shown) [Compound 140] | 100 | 320 | 140 | 170 | – | – | –
25 | CCN1CCC(n2cc(-c3nc(N)ncc3F)c3cc(C#CC(C)(O)C4CC4)ncc32)C1 (stereo not shown) [Compound 141] | 66 | 320 | 56 | 96 | – | – | –
26 | CC(O)(C#Cc1cc2c(-c3nc(N)ncc3F)cn(C3CN(C4CCCC4)C3)c2cn1)C1CC1 (stereo not shown) [Compound 142] | 210 | 410 | 190 | 150 | – | – | –
27 | CCOCCN1CC(n2cc(-c3nc(N)ncc3F)c3cc(C#CC(C)(O)C4CC4)ncc32)C1 (stereo not shown) [Compound 158] | 180 | 740 | 390 | 440 | – | – | –
28 | CC(C)N1CC(n2cc(-c3nc(N)ncc3F)c3cc(C#CC(C)(O)C4CC4)ncc32)C1 (stereo not shown) [Compound 159] | 270 | 320 | 180 | 230 | – | – | –
29 | [2H]C([2H])([2H])C(O)(C#Cc1cc2c(-c3nc(N)ncc3F)cn(C3CN(C4CC4)C3)c2cn1)C([2H])([2H])[2H] [Compound 160] | 82 | 210 | 93 | 110 | – | – | –
30 | CC(O)(C#Cc1cc2c(-c3nc(N)ncc3F)cn(C3CN(C4CC4)C3)c2cn1)CF (stereo not shown) [Compound 161] | 40 | 340 | 110 | 150 | – | – | –
31 | COCC(C)N1CC(n2cc(-c3nc(N)ncc3F)c3cc(C#CC(C)(O)C4CC4)ncc32)C1 (stereo not shown) [Compound 162] | 340 | 790 | 350 | 370 | – | – | –
32 | CC(O)(C#Cc1cc2c(-c3nc(N)ncc3F)cn(C3CCN(CCF)CC3)c2cn1)C1CC1 (stereo not shown) [Compound 163] | 73 | 110 | 59 | 110 | – | – | –
33 | CC(O)(C#Cc1cc2c(-c3ccnc(N)n3)cn(C3CCN(C4CC4)CC3)c2cn1)C1CC1 (stereo not shown) [Compound 164] | 89 | 680 | 270 | 390 | – | – | –
34 | CC(O)(C#Cc1cc2c(-c3nc(N)ncc3F)cn(C3CCN(CC4CC4)CC3)c2cn1)C1CC1 (stereo not shown) [Compound 165] | 46 | 460 | 200 | 220 | – | – | –
35 | CC(C)(O)C#Cc1cc2c(-c3nc(N)ncc3F)cn(C3CN(C4CC4)C3)c2cn1 [Compound 166] | 76 | 180 | 60 | 96 | – | – | –
36 | CC(O)(C#Cc1cc2c(-c3nc(N)ncc3F)cn(C3CCN(CCC(F)(F)F)CC3)c2cn1)C1CC1 (stereo not shown) [Compound 167] | 58 | 1000 | 390 | 390 | – | – | –
37 | COCCOc1cnc(N)nc1-c1cn(C(C)C)c2cnc(C#CC(C)(O)C3CC3)cc12 (stereo not shown) [Compound 168] | 36 | 93 | 23 | 27 | – | – | –
